Experiments:
CYP2B6 = CYP2B6 (Homo sapiens, UniProt P20813); assay: Induction of CYP2B6 in human hepatocytes using bupropion as substrate at 0.3 to 30 uM treated every 24 hrs for 2 days measured on day 5 by LC-MS/MS analysis relative to control; format: ADME, cell-based, Hepatocyte; conditions: probe bupropion, read-out: FC
CYP2C9 = CYP2C9 (Homo sapiens, UniProt P11712); assay: Induction of CYP2C9 in human hepatocytes using diclofenac as substrate at 0.3 to 30 uM treated every 24 hrs for 2 days measured on day 5 by LC-MS/MS analysis relative to control; format: ADME, cell-based, Hepatocyte; conditions: probe diclofenac, read-out: FC
Chain of CYP2C9 (P11712 whole entry): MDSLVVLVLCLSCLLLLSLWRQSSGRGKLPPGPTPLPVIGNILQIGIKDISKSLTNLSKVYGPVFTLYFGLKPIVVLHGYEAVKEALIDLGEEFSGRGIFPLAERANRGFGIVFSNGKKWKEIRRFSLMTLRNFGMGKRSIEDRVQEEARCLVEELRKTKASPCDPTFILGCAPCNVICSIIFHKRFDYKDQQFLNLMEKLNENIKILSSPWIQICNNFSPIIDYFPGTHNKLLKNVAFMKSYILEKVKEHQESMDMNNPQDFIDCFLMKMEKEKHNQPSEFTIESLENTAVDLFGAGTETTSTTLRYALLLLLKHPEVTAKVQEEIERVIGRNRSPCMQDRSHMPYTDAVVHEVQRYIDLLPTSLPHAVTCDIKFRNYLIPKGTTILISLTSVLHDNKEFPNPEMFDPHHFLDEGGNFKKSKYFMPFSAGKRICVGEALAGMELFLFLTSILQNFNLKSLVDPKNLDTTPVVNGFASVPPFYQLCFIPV

[1] = AUC (0 to infinity) in healthy human at 50 mg, po in presence of ketoconazole; format: ADME, organism-based; set-up: dose 50 mg, route oral, time infinity; conditions: plasma
[2] = Drug metabolism in human liver microsomes assessed as CYP3A5*1/*1-mediated (2S,3S,4S,5R,6S)-6-(2-(4-(4-(tert-butylcarbamoyl)-2-(2-chloro-4-cyclopropylphenylsulfonamido)phenoxy)-5-chloro-2-fluorophenyl)acetoxy)-3,4,5-trihydroxytetrahydro-2H-pyran-2-carboxylic acid formation after 15 mins by LC-MS/MS analysis in presence of UDPGA; format: ADME; conditions: 0.25 h
Cytochrome P450 3A5 = Cytochrome P450 3A5 (Homo sapiens, UniProt P20815); assay: Drug metabolism assessed as recombinant CYP3A5 (unknown origin)-mediated 2-(5-chloro-4-(2-(2-chloro-4-cyclopropylphenylsulfonamido)-4-(1-hydroxy-2-methylpropan-2-ylcarbamoyl)phenoxy)-2-fluorophenyl)acetic acid formation at 10 uM after 30 mins by LC-MS/MS analysis; format: ADME; conditions: recombinant enzyme, 0.5 h
Chain of Cytochrome P450 3A5 (P20815 whole entry): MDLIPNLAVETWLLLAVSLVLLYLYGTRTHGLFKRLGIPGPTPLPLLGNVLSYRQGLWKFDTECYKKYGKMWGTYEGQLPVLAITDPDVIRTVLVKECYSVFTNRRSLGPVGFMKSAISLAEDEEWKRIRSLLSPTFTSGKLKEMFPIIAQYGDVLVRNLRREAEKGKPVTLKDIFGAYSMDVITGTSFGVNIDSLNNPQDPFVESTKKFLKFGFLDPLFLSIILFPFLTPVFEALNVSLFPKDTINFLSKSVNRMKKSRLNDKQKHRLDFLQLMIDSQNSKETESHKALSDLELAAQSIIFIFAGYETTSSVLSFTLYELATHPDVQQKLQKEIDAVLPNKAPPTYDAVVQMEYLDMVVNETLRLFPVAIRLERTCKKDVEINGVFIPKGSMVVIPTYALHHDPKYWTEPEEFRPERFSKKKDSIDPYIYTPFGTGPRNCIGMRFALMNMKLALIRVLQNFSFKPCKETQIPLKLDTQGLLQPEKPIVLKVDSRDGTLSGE

Cytochrome P450 3A7 [3] = molecular target: T1, Cytochrome P450 3A7 (Homo sapiens, UniProt P24462); assay: Drug metabolism assessed as recombinant CYP3A7 (unknown origin)-mediated 2-(5-chloro-4-(2-(2-chloro-4-cyclopropylphenylsulfonamido)-4-(1-hydroxy-2-methylpropan-2-ylcarbamoyl)phenoxy)-2-fluorophenyl)acetic acid formation at 10 uM after 30 mins by LC-MS/MS analysis; format: ADME; conditions: recombinant enzyme, 0.5 h
T1 sequence (P24462 whole entry): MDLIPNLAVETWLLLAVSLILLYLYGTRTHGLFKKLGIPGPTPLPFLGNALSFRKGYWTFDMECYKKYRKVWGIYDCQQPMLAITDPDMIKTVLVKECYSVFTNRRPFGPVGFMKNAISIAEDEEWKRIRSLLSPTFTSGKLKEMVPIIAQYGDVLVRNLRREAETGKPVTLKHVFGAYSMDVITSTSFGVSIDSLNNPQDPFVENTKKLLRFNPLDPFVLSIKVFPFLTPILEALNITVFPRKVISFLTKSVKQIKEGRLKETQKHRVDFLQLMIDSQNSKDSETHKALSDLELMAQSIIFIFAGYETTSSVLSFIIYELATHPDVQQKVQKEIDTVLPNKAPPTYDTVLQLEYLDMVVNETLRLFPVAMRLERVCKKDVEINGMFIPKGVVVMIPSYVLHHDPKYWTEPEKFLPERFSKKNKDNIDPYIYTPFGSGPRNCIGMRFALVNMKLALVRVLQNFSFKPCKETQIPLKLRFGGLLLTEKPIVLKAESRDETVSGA

Cytochrome P450 2C8 = molecular target: T2, Cytochrome P450 2C8 (Homo sapiens, UniProt P10632); assay: Drug metabolism assessed as recombinant CYP2C8 (unknown origin)-mediated 2-(4-(4-(tert-butylcarbamoyl)-2-(2-chloro-4-(1-hydroxycyclopropyl)phenylsulfonamido)phenoxy)-5-chloro-2-fluorophenyl)acetic acid formation at 10 uM after 30 mins by LC-MS/MS analysis; format: ADME; conditions: recombinant enzyme, 0.5 h
T2 sequence (P10632 whole entry): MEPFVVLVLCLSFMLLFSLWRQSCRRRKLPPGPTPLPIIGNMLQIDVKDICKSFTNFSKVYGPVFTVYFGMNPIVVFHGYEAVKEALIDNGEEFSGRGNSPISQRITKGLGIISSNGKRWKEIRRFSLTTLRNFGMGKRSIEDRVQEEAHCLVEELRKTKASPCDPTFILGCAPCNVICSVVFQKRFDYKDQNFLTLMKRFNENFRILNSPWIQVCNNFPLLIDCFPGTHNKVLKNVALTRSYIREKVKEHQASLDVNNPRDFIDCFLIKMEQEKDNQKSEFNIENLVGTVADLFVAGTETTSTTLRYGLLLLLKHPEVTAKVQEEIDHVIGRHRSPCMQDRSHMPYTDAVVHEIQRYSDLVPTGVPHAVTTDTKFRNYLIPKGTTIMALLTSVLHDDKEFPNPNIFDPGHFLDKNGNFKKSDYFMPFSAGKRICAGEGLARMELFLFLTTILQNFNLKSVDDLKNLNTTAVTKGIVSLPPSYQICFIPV

Cytochrome P450 3A4 = Cytochrome P450 3A4 (Homo sapiens, UniProt P08684); assay: Drug metabolism assessed as recombinant CYP3A4 (unknown origin)-mediated 2-(4-(4-(tert-butylcarbamoyl)-2-(2-chloro-4-(1-hydroxycyclopropyl)phenylsulfonamido)phenoxy)-5-chloro-2-fluorophenyl)acetic acid formation at 10 uM after 30 mins by LC-MS/MS analysis; format: ADME; conditions: recombinant enzyme, 0.5 h
Chain of Cytochrome P450 3A4 (P08684 whole entry): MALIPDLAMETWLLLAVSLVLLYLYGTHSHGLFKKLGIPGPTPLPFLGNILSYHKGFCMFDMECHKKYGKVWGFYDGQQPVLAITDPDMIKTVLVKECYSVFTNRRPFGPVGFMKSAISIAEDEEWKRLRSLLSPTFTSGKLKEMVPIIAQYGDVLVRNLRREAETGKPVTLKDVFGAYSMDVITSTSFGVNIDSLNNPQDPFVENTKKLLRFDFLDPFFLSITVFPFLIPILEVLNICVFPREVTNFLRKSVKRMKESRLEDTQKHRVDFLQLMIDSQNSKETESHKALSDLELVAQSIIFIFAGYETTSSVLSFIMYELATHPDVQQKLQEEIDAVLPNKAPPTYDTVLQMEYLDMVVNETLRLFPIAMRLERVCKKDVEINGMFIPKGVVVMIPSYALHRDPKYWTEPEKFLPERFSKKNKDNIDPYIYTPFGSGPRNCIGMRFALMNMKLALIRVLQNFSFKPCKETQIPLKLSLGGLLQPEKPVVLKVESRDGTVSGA

Cytochrome P450 3A7 [4] = molecular target: T1, Cytochrome P450 3A7; assay: Drug metabolism assessed as recombinant CYP3A7 (unknown origin)-mediated 2-(4-(4-(tert-butylcarbamoyl)-2-(2-chloro-4-(1-hydroxycyclopropyl)phenylsulfonamido)phenoxy)-5-chloro-2-fluorophenyl)acetic acid formation at 10 uM after 30 mins by LC-MS/MS analysis; format: ADME; conditions: recombinant enzyme, 0.5 h
Cytochrome P450 2C19 = Cytochrome P450 2C19 (Homo sapiens, UniProt P33261); assay: Drug metabolism assessed as recombinant CYP2C19 (unknown origin)-mediated 2-(4-(4-(tert-butylcarbamoyl)-2-(2-chloro-4-(1-hydroxycyclopropyl)phenylsulfonamido)phenoxy)-5-chloro-2-fluorophenyl)acetic acid formation at 10 uM after 30 mins by LC-MS/MS analysis; format: ADME; conditions: recombinant enzyme, 0.5 h
Chain of Cytochrome P450 2C19 (P33261 whole entry): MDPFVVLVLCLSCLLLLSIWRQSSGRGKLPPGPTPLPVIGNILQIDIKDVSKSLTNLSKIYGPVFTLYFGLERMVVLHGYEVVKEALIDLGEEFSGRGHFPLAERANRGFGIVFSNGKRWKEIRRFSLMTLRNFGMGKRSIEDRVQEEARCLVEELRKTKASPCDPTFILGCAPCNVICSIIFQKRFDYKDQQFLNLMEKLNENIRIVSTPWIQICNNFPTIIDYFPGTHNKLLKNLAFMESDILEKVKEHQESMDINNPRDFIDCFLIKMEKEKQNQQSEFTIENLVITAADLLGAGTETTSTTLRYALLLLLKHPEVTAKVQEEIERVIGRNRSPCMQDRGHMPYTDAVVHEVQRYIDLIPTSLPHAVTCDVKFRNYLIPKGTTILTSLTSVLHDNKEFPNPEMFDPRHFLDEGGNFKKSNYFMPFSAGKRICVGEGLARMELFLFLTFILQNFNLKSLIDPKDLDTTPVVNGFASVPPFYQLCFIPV

Liver microsome = assay: Drug metabolism in human liver microsomes assessed as 2-(5-chloro-4-(2-(2-chloro-4-cyclopropylphenylsulfonamido)-4-(1-hydroxy-2-methylpropan-2-ylcarbamoyl)phenoxy)-2-fluorophenyl)acetic acid formation at 2 uM after 60 mins by LC-MS/MS analysis in presence of ketoconazole; format: ADME; conditions: 1 h
[5] = molecular target: T3, UDP-glucuronosyltransferase 1A1 (Homo sapiens, UniProt P22309); assay: Drug metabolism assessed as human recombinant UGT1A1-mediated compound formation treated with AMG 853 at 10 uM after 30 mins by LC-MS/MS analysis; format: ADME; conditions: recombinant enzyme, 0.5 h
T3 sequence (P22309 whole entry): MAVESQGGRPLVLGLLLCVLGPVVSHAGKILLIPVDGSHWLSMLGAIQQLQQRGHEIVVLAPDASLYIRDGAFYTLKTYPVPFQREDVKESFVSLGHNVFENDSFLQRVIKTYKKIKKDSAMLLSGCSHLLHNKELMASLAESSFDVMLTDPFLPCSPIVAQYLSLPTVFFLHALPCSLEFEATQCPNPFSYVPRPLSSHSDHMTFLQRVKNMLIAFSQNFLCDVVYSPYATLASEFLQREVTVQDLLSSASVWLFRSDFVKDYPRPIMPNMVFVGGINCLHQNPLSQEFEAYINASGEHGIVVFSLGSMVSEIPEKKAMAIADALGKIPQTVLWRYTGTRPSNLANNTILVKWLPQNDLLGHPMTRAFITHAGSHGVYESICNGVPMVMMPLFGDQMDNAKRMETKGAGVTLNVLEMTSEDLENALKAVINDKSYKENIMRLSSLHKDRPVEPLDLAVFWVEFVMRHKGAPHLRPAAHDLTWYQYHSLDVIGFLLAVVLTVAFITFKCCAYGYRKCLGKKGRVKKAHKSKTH

Chain of CYP2B6 (P20813 whole entry): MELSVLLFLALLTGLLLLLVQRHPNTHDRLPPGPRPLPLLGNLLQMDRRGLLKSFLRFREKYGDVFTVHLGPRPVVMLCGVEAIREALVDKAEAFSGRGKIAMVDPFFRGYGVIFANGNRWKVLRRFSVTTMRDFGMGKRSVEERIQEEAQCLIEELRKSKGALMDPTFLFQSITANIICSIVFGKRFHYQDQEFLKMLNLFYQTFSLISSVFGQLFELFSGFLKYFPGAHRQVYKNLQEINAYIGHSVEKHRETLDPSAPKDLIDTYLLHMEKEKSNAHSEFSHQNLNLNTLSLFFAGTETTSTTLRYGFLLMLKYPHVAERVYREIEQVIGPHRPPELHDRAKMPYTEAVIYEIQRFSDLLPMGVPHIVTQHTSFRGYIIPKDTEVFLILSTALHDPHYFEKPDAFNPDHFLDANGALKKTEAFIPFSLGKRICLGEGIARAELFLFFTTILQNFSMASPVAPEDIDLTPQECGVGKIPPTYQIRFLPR

| fold induction at 48 h, up to 30 µM (CYP2B6) | fold induction at 48 h, up to 30 µM (CYP2C9) | AUC(0-inf) [1] | Drug metabolism (Cytochrome P450 3A5) | Drug metabolism (Cytochrome P450 3A7 [3]) | Drug metabolism (Cytochrome P450 2C8) | Drug metabolism (Cytochrome P450 3A4) | Drug metabolism (Cytochrome P450 3A7 [4]) | Drug metabolism (Cytochrome P450 2C19) | Drug metabolism (Liver microsome) | Drug metabolism [5] | SMILES | Drug metabolism [2] |
| --- | --- | --- | --- | --- | --- | --- | --- | --- | --- | --- | --- | --- |
| 1.4 | 1.4 | 800 ng·h/mL | metabolite_detected | metabolite_detected | metabolite_detected | metabolite_detected | metabolite_detected | metabolite_detected | metabolite_not_detected |  | CC(C)(C)NC(=O)c1ccc(Oc2cc(F)c(CC(=O)O)cc2Cl)c(NS(=O)(=O)c2ccc(C3CC3)cc2Cl)c1 [VIDUPIPRANT] | metabolite_detected |
|  |  |  |  |  |  |  |  |  |  | metabolite_detected | CC(C)(C)NC(=O)c1ccc(Oc2cc(F)c(CC(=O)O[C@@H]3O[C@H](C(=O)O)[C@@H](O)[C@H](O)[C@H]3O)cc2Cl)c(NS(=O)(=O)c2ccc(C3CC3)cc2Cl)c1 |  |
